Data published in article PMC6134108, “Nystatin-like Pseudonocardia polyene B1, a novel disaccharide-containing antifungal heptaene antibiotic” (Scientific Reports, 2018).
In brackets after ≈: the same amount, converted by molar mass. Like-named read-outs stand apart in the source and are kept apart here.

Experiments:
[1] = rats, oral administration
[2] = system: ergosterol-containing membranes; assay: Preliminary SPR experiments; assay type: binding; conditions: ergosterol- vs cholesterol-containing liposomes, unpublished data
[3] = 7-day repeated intravenous dose toxicity; assay type: in vivo, mice; conditions: both sexes, ICR, mouse, in vivo; mice, 7-day repeated intravenous doses; read-out: MTD, maximal tolerated dose
Description: (§1) All in vivo mouse toxicity studies were conducted according to Testing Guidelines for Safety Evaluation of Drugs[32] and the Organisation for Economic Co-operation and Development (OECD) Guideline[33]. Male and female ICR mice were used 7 weeks old for the toxicity test. […]

ICR mice [4] = assay: 7-day repeated intravenous dose toxicity; assay type: in vivo; conditions: repeated iv 1.5mg/kg
Description: as §1

in vivo [5] = conditions: mouse, 0.5 mg/kg
From the text: Supplement 41598_2018_31801_MOESM1_ESM.docx, table 4: Table S4.

[6] = Single intravenous dose acute toxicity; assay type: in vivo, mice; conditions: ICR, mouse, in vivo, single intravenous administration
Description: (§2) All in vivo mouse toxicity studies were conducted according to Testing Guidelines for Safety Evaluation of Drugs[32] and the Organisation for Economic Co-operation and Development (OECD) Guideline[33]. Male and female ICR mice were used 7 weeks old for the toxicity test. […] The single doses were 1, 2.5, and 5 mg per kg body weight.

ICR mice [7] = assay: Single intravenous dose acute toxicity; assay type: in vivo
Description: as §2

[8] = system: Saccharomyces cerevisiae ATCC9035; assay: MIC assay (CLSI M27-A3 microbroth); assay type: cell-based; conditions: Saccharomyces cerevisiae, ATCC9035, read-out: Antifungal activity (MIC)
Description: (§3) For the minimum inhibitory concentration (MIC) assay, strains for testing were grown on YPD agar for 24 hours, and subcultured to YPD broth medium. Whole strains were incubated for 18 hours at 35 °C by shaking incubator. Grown organisms were diluted with fresh RPMI 1640 medium to appropriate concentration, 5 × 10^4 CFU/ml. Cultures were inoculated to 96-well plates containing antifungal medium. All compounds were dissolved using Dimethyl Sulfoxide (DMSO) and diluted broth media. Fungal diluted solution and antifungal medium were mixed at 1:1 ratio so total 200 ul mixed medium was made. Whole experiment plates were incubated for 24 hours at 37 °C. […] The MICs were calculated in duplicate using the Clinical and Laboratory Standards Institute M27-A3 microbroth methodology. Hemolysis experiments and the 3-(4,5-dimethylthiazol-2-yl)-5-(3-carboxymethoxyphenyl)-2-(4-sulfophenyl)-2H-tetrazolium (MTS) cell proliferation colorimetric assay were performed following known procedures[12],[27],[29].

[9] = system: Cryptococcus humicola ATCC9949; assay: MIC assay (CLSI M27-A3 microbroth); assay type: cell-based; conditions: Vanrija humicola, ATCC9949, read-out: Antifungal activity (MIC)
Description: as §3

C. albicans SC5314 = assay: MIC assay (CLSI M27-A3 microbroth); assay type: cell-based; conditions: Candida albicans, SC5314, read-out: Antifungal activity (MIC)
Description: as §3

C. albicans SL28 = assay: MIC assay (CLSI M27-A3 microbroth); assay type: cell-based; conditions: Candida albicans, SL28, read-out: Antifungal activity (MIC)
Description: as §3

C. albicans SL38 = assay: MIC assay (CLSI M27-A3 microbroth); assay type: cell-based; conditions: Candida albicans, SL38, read-out: Antifungal activity (MIC)
Description: as §3

[10] = system: Candida albicans KCTC7965; assay: MIC assay (CLSI M27-A3 microbroth); assay type: cell-based; conditions: Candida albicans, KCTC7965, read-out: Antifungal activity (MIC)
Description: as §3

in vivo [11] = conditions: male, SD, rat, plasma, iv, 1 mg/kg
horse blood cells = assay type: cell-based; conditions: 90% hemolysis against horse blood cells; ± percentage standard deviation
Description: as §3

CC(=O)NC1C(OC2C(C)OC(OC3C=CC=CC=CC=CC=CC=CC=CC(C)C(O)C(C)C(C)OC(=O)CC(O)CC(O)CC(O)CCC(O)C(O)CC4(O)CC(O)C(C(=O)O)C(C3)O4)C(O)C2N)OC(CO)C(O)C1O (stereo not shown) [NPP B1, Nystatin-like Pseudonocardia polyene B1]
detection in the plasma following oral administration [1]: not detected | binding preference [2]: binds preferentially to ergosterol-containing liposomes | MTD at 7 days [3]: > 1.5 mg/kg | Deaths on day after start of treatment (ICR mice [4]; female, day 0): 0 | Deaths on day after start of treatment (ICR mice [4]; female, day 1): 0 | Deaths on day after start of treatment (ICR mice [4]; female, day 2): 0 | Deaths on day after start of treatment (ICR mice [4]; female, day 3): 0 | Deaths on day after start of treatment (ICR mice [4]; female, day 4): 0 | Deaths on day after start of treatment (ICR mice [4]; female, day 5): 0 | Deaths on day after start of treatment (ICR mice [4]; female, day 6): 0 | Deaths on day after start of treatment (ICR mice [4]; female, day 7): 0 | Deaths on day after start of treatment (ICR mice [4]; male, day 0): 0 | Deaths on day after start of treatment (ICR mice [4]; male, day 1): 0 | Deaths on day after start of treatment (ICR mice [4]; male, day 2): 0 | Deaths on day after start of treatment (ICR mice [4]; male, day 3): 0 | Deaths on day after start of treatment (ICR mice [4]; male, day 4): 0 | Deaths on day after start of treatment (ICR mice [4]; male, day 5): 0 | Deaths on day after start of treatment (ICR mice [4]; male, day 6): 0 | AUC(0-inf) (in vivo [5]; read-out: AUC0-inf): 15100 ng·h/mL | AUC(0-t) (in vivo [5]; read-out: AUC0-t): 5890 ng·h/mL | clearance (in vivo [5]; read-out: CL (converted)): 0.5 mL/min/kg | MRT inf (in vivo [5]; read-out: MRTinf): 17 h | Vd (in vivo [5]; read-out: Vss): 0.6 L/kg | half-life (in vivo [5]; read-out: t1/2 (converted)): 12.3 h | LD50 at 7 days ([6]; female mice, read-out: median lethal dose (LD50)): 2.95 mg/kg | LD50 at 7 days ([6]; male mice, read-out: median lethal dose (LD50)): 2.95 mg/kg | LD50 at 7 days ([6]; both sexes, mice, read-out: LD50, median lethal dose (dose causing 50% mortality)): 2.95 mg/kg | Deaths on day after start of treatment (ICR mice [7]; female, single iv 1mg/kg, day 0): 0 | Deaths on day after start of treatment (ICR mice [7]; female, single iv 1mg/kg, day 1): 0 | Deaths on day after start of treatment (ICR mice [7]; female, single iv 1mg/kg, day 2): 0 | Deaths on day after start of treatment (ICR mice [7]; female, single iv 1mg/kg, day 3): 0 | Deaths on day after start of treatment (ICR mice [7]; female, single iv 1mg/kg, day 4): 0 | Deaths on day after start of treatment (ICR mice [7]; female, single iv 1mg/kg, day 5): 0 | Deaths on day after start of treatment (ICR mice [7]; female, single iv 1mg/kg, day 6): 0 | Deaths on day after start of treatment (ICR mice [7]; female, single iv 1mg/kg, day 7): 0 | Deaths on day after start of treatment (ICR mice [7]; female, single iv 2.5mg/kg, day 0): 1 | Deaths on day after start of treatment (ICR mice [7]; female, single iv 2.5mg/kg, day 1): 0 | Deaths on day after start of treatment (ICR mice [7]; female, single iv 2.5mg/kg, day 2): 1 | Deaths on day after start of treatment (ICR mice [7]; female, single iv 2.5mg/kg, day 3): 0 | Deaths on day after start of treatment (ICR mice [7]; female, single iv 2.5mg/kg, day 4): 0 | Deaths on day after start of treatment (ICR mice [7]; female, single iv 2.5mg/kg, day 5): 0 | Deaths on day after start of treatment (ICR mice [7]; female, single iv 2.5mg/kg, day 6): 0 | Deaths on day after start of treatment (ICR mice [7]; female, single iv 2.5mg/kg, day 7): 0 | Deaths on day after start of treatment (ICR mice [7]; female, single iv 5mg/kg, day 0): 3 | Deaths on day after start of treatment (ICR mice [7]; female, single iv 5mg/kg, day 1): 2 | Deaths on day after start of treatment (ICR mice [7]; female, single iv 5mg/kg, day 2): 0 | Deaths on day after start of treatment (ICR mice [7]; female, single iv 5mg/kg, day 3): 0 | Deaths on day after start of treatment (ICR mice [7]; female, single iv 5mg/kg, day 4): 0 | Deaths on day after start of treatment (ICR mice [7]; female, single iv 5mg/kg, day 5): 0 | Deaths on day after start of treatment (ICR mice [7]; female, single iv 5mg/kg, day 6): 0 | Deaths on day after start of treatment (ICR mice [7]; female, single iv 5mg/kg, day 7): 0 | Deaths on day after start of treatment (ICR mice [7]; male, single iv 1mg/kg, day 0): 0 | Deaths on day after start of treatment (ICR mice [7]; male, single iv 1mg/kg, day 1): 0 | Deaths on day after start of treatment (ICR mice [7]; male, single iv 1mg/kg, day 2): 0 | Deaths on day after start of treatment (ICR mice [7]; male, single iv 1mg/kg, day 3): 0 | Deaths on day after start of treatment (ICR mice [7]; male, single iv 1mg/kg, day 4): 0 | Deaths on day after start of treatment (ICR mice [7]; male, single iv 1mg/kg, day 5): 0 | Deaths on day after start of treatment (ICR mice [7]; male, single iv 1mg/kg, day 6): 0 | Deaths on day after start of treatment (ICR mice [7]; male, single iv 1mg/kg, day 7): 0 | Deaths on day after start of treatment (ICR mice [7]; male, single iv 2.5mg/kg, day 0): 1 | Deaths on day after start of treatment (ICR mice [7]; male, single iv 2.5mg/kg, day 1): 0 | Deaths on day after start of treatment (ICR mice [7]; male, single iv 2.5mg/kg, day 2): 1 | Deaths on day after start of treatment (ICR mice [7]; male, single iv 2.5mg/kg, day 3): 0 | Deaths on day after start of treatment (ICR mice [7]; male, single iv 2.5mg/kg, day 4): 0 | Deaths on day after start of treatment (ICR mice [7]; male, single iv 2.5mg/kg, day 5): 0 | Deaths on day after start of treatment (ICR mice [7]; male, single iv 2.5mg/kg, day 6): 0 | Deaths on day after start of treatment (ICR mice [7]; male, single iv 2.5mg/kg, day 7): 0 | Deaths on day after start of treatment (ICR mice [7]; male, single iv 5mg/kg, day 0): 4 | Deaths on day after start of treatment (ICR mice [7]; male, single iv 5mg/kg, day 1): 0 | Deaths on day after start of treatment (ICR mice [7]; male, single iv 5mg/kg, day 2): 1 | Deaths on day after start of treatment (ICR mice [7]; male, single iv 5mg/kg, day 3): 0 | Deaths on day after start of treatment (ICR mice [7]; male, single iv 5mg/kg, day 4): 0 | Deaths on day after start of treatment (ICR mice [7]; male, single iv 5mg/kg, day 5): 0 | Deaths on day after start of treatment (ICR mice [7]; male, single iv 5mg/kg, day 6): 0 | Deaths on day after start of treatment (ICR mice [7]; male, single iv 5mg/kg, day 7): 0 | MIC [8]: 2 µg/mL (≈ 1.77 µM) | MIC [9]: 1 µg/mL (≈ 0.887 µM) | MIC (C. albicans SC5314): 4 µg/mL (≈ 3.55 µM) | MIC (C. albicans SL28): 4 µg/mL (≈ 3.55 µM) | MIC (C. albicans SL38): 2 µg/mL (≈ 1.77 µM) | MIC [10]: 2 µg/mL (≈ 1.77 µM) | AUC(0-inf) (in vivo [11]): 13600 ng·h/mL | AUC(0-t) (in vivo [11]): 10300 ng·h/mL | MRT inf (in vivo [11]): 15.6 h | Vd (in vivo [11]): 1.1 L/kg | clearance (in vivo [11]): 1.67 mL/min/kg | half-life (in vivo [11]): 14.5 h | Hemolytic activity (MHC, minimum hemolytic concentration) (horse blood cells): 13.60 ± 0.19 µg/mL
